{"source": "patent US20070197388A1", "about": "“Haloperoxidase treatment to control algae” (Buckman Laboratories International, Inc., priority 2006, published 2007)", "molecules": {"B1": {"name": "Myeloperoxidase: a myeloperoxidase enzyme obtained from Biodesign International (protein, UniProt P05164 165-745, looked up)", "Myeloperoxidase": "VTCPEQDKYRTITGMCNNRRSPTLGASNRAFVRWLPAEYEDGFSLPYGWTPGVKRNGFPVALARAVSNEIVRFPTDQLTPDQERSLMFMQWGQLLDHDLDFTPEPAARASFVTGVNCETSCVQQPPCFPLKIPPNDPRIKNQADCIPFFRSCPACPGSNITIRNQINALTSFVDASMVYGSEEPLARNLRNMSNQLGLLAVNQRFQDNGRALLPFDNLHDDPCLLTNRSARIPCFLAGDTRSSEMPELTSMHTLLLREHNRLATELKSLNPRWDGERLYQEARKIVGAMVQIITYRDYLPLVLGPTAMRKYLPTYRSYNDSVDPRIANVFTNAFRYGHTLIQPFMFRLDNRYQPMEPNPRVPLSRVFFASWRVVLEGGIDPILRGLMATPAKLNRQNQIAVDEIRERLFEQVMRIGLDLPALNMQRSRDHGLPGYNAWRRFCGLPQPETVGQLGTVLRNLKLARKLMEQYGTPNNIDIWMGGVSEPLKRKGRVGPLLACIIGTQFRKLRDGDRFWWENEGVFSMQQRQALAQISLPRIICDNTGITTVSKNNIFMSNSYPRDFVNCSTLPALNLASWREAS"}}, "assay_type_in_all_cases": "cell-based", "key": {"[1]": {"test_system": "Chlorella sp. (ATCC 7516)", "assay": "Evaluation of algaecidal activity (MIC) and checkerboard synergy, Chlorella sp.", "experimental": "Evaluation of […] Activity: This test method provides a technique for screening newly synthesized compounds for their effectiveness to inhibit (repress) algae growth. […] Apparatus: Test tubes, 18-150 mm. Sterilized test tubes are required. Incubator, capable of a constant (±2° C.) temperature and light regulation. Reagents and Materials: [table] Inoculum: Cell suspension from a culture grown in modified Allen's medium for 14 days or as needed to attain a desired cell mass of Chlorella sp. (ATCC 7516) or Phormidium faveolarum (UTEX 427). The inoculum is calibrated at 82% transmittance measured at 590 nanometers wavelength before inoculation. Procedure: Medium preparation: Modified Allen's medium (Allen, A. A., 1968). [table] Sterilize the medium in the autoclave for 20 minutes at 15 pounds pressure (121° C.). After autoclaving, cool medium to 45-50° C. and dispense 5 ml of medium per test tube, then add the compound and the inoculum. Compound incorporation: Prepare a stock solution in water of the compound to be tested. The concentration of the stock solution is dependent on the largest dosage desired to be tested. Dilute the stock solution to obtain dosages smaller than that chosen for the stock solution. A maximum amount of 100 microliters of stock solution or the corresponding dilution should be added per test tube. Inoculation: Add 100 microliters of inoculum per test tube, per type of medium and type of inoculum. Incubation: Place the test tubes containing the treatments in an incubator set at 24° C. Light is provided by plant growth fluorescent tubes set to provide 16 h of light and 8 h of darkness. […] The minimum inhibitory concentration (MIC) of the compound is the smallest dosage showing negative algae growth. Synergy Evaluation: Synergy was measured by checkerboards dilutions (Yan and Hancock, 2001), in which one compound is diluted along the rows of test tubes and the other is diluted along the columns. This method focuses on looking for a reduction in the MIC of each component in the presence of the other."}, "[2]": {"test_system": "Phormidium faveolarum (UTEX 427)", "assay": "Evaluation of algaecidal activity (MIC) and checkerboard synergy, Phormidium faveolarum", "details": "alone, system with 1 ppm a.i. Hydrogen Peroxide, 14 days at 24° C.", "experimental": "Evaluation of Algaecidal Activity: This test method provides a technique for screening newly synthesized compounds for their effectiveness to inhibit (repress) algae growth.\nApparatus: Test tubes, 18-150 mm. Sterilized test tubes are required.\nIncubator, capable of a constant (±2° C.) temperature and light regulation.\nInoculum: Cell suspension from a culture grown in modified Allen's medium for 14 days or as needed to attain a desired cell mass of Chlorella sp. (ATCC 7516) or Phormidium faveolarum (UTEX 427). The inoculum is calibrated at 82% transmittance measured at 590 nanometers wavelength before inoculation.\nProcedure: Medium preparation: Modified Allen's medium (Allen, A. A., 1968).\nSterilize the medium in the autoclave for 20 minutes at 15 pounds pressure (121° C.). After autoclaving, cool medium to 45-50° C. and dispense 5 ml of medium per test tube, then add the compound and the inoculum. […]\nSynergy Evaluation: Synergy was measured by checkerboards dilutions (Yan and Hancock, 2001), in which one compound is diluted along the rows of test tubes and the other is diluted along the columns. […] The result is expressed as the Fractional Inhibitory Concentration Index (FIC), calculated as follows: FIC=[A]/MICA+[B]/MICB where, • MICA and MICB=MICs of the compounds A and B alone • [A] and [B]=MICs of the compounds A and B when in combination."}, "[3]": {"test_system": "Enterobacter aerogenes (ATCC 13048)", "assay": "Evaluation of bactericidal activity (MIC, >=90% kill) and checkerboard synergy, Enterobacter aerogenes", "details": "Klebsiella aerogenes, ATCC13048; alone; system with 2 ppm a.i. Hydrogen Peroxide; 18 hours at 37° C.; read-out: MICA = MIC of Dichloramine B", "experimental": "Synergy Evaluation: Synergy was measured by checkerboards dilutions (Yan and Hancock, 2001), in which one compound is diluted along the rows of test tubes and the other is diluted along the columns. This method focuses on looking for a reduction in the MIC of each component in the presence of the other. The result is expressed as the Fractional Inhibitory Concentration Index (FIC), calculated as follows: FIC=[A]/MICA+[B]/MICB where, • MICA and MICB=MICs of the compounds A and B alone • [A] and [B]=MICs of the compounds A and B when in combination.\nEvaluation of Bactericidal Activity: This method is suitable for use in evaluating the antibacterial properties of chemicals by determining their MIC value. The MIC value represents the Minimum Inhibitory Concentration defined as the lowest level of compound required to achieve a ≧90% kill of a given organism.\nEquipment • 1. Test tubes, 18×150 mm disposable culture tubes sterile • 2. Sterile 1 ml and 10 ml pipettes • 3. Incubator capable of maintaining a temperature of 37° C.±1° C. • 4. Autoclave • 5. pH meter • 6. […]\nRating of tubes via plate count method: The Pour Plate Count agar was prepared as described in Standard Methods (American Public Health Association; 1995). […] Colonies formed in or on the plate count medium within 48±2 h were counted as described in Standard Methods, and the results were reported as CFU/milliliter. […]"}, "[4]": {"details": "alone, system with 1 ppm a.i. Hydrogen Peroxide, 14 days at 24° C."}}}
{"molecule": "Benzalkonium Chloride [reference compound]", "values": [{"measurement": "dosage controlling algae growth", "setting": "[1]; Example 7, reinoculated only after 14 days, incubated 14 days (result not shown)", "result": 2, "unit": "ppm a.i."}, {"measurement": "MICA = MIC of Benzalkonium Chloride", "setting": "[1]; alone, reinoculated after 14 days and treated with 1 ppm of hydrogen peroxide, incubated 14 days", "result": 2, "unit": "MICA mg a.i./l"}, {"measurement": "MICA = MIC of Benzalkonium Chloride", "setting": "[1]; [4]", "result": 1, "unit": "MICA mg a.i./l"}, {"measurement": "MICA = MIC of Benzalkonium Chloride", "setting": "[2]", "result": 2, "unit": "MICA mg a.i./l"}]}
{"molecule": "O=S(=O)(c1ccccc1)N(Cl)Cl", "note": "[Dichloramine B, N,N-dichlorobenzenesulfonamide]", "values": [{"measurement": "MIC", "setting": "[3]", "result": 5, "unit": "µg/mL"}, {"measurement": "MIC Dichloramine B combined with Haloperoxidase and Hydrogen Peroxide", "setting": "[1]; combined with 1 ppm product of Haloperoxidase (Novozyme) and 2 ppm a.i. Hydrogen Peroxide, 14 days at 24° C.", "result": "< 0.07", "unit": "ppm a.i."}]}
{"molecule": "CCCCCCCCCCCCCCCC[N+](C)(C)CC.[Br-]", "note": "[EHDB, Ethyl-n-Hexadecyl Dimethylammonium Bromide]", "values": [{"measurement": "MICA = MIC of EHDB", "setting": "[1]; [4]", "result": 0.5, "unit": "MICA mg a.i./l"}, {"measurement": "MIC", "setting": "[2]; 336 h, read-out: MICA = MIC of EHDB", "result": 0.5, "unit": "µg/mL"}]}
{"molecule": "B1", "values": [{"measurement": "MIC (ppm product)", "setting": "[1]; 2 ppm a.i. hydrogen peroxide as substrate, 4 ppm a.i. ammonium bromide as electron donor", "result": "<0.1", "unit": "ppm product"}]}
